Measured values: BindingDB's records for doi:10.1021/jm100984y (The University of Queensland, 2010)

Target: T1, Proteinase-activated receptor 2 (Homo sapiens, UniProt P55085)
T1 sequence (P55085 whole entry): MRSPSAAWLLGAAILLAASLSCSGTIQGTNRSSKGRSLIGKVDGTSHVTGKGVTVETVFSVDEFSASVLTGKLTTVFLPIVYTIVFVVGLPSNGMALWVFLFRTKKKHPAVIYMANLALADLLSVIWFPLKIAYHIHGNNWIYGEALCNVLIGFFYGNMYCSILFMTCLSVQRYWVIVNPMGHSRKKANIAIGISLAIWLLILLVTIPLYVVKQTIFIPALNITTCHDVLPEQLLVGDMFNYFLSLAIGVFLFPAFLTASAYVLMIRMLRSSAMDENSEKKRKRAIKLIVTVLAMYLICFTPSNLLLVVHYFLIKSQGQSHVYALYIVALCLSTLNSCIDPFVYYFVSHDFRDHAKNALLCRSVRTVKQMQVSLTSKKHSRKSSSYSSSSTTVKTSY
Test: Agonist activity at PAR2 receptor in human HT-29 cells assessed as induction of intracellular calcium release

EC50: 316 nM
SMILES: CC[C@H](C)[C@H](NC(=O)[C@H](CC1CCCCC1)NC(=O)c1ccno1)C(=O)Nc1ccc(CC(=O)N2CCC(CN)CC2)cc1 [5-Isoxazoyl-Cha-Ile-4-aminophenyl-(4-[aminomethyl]piperidin-1-yl)ethan-2-one]
